The subject of this test is human gammaherpesvirus 4. In words: Inhibition of Epstein-Barr virus early antigen activation.

Active and inactive are the calls of the source. The rule behind the calls is not given here.

`CC(C)CC(=O)c1c(O)c(C=O)c2c(c1O)C[C@H]1C[C@H](C(C)C)C=C[C@@]1(C)O2`: the outcome was inactive.

`CC(C)CC(=O)c1c(O)c(C=O)c(O)c2c1O[C@]1(C)C=C[C@@H](C(C)C)C[C@@H]1C2`: the result was inactive.

The values above are taken from ChEMBL document CHEMBL1150193, “Euglobal T1, a New Euglobal from Eucalyptus tereticornis” (J Nat Prod, 1991).
